{"source": "patent US20250345276A1", "about": "“O/W-EMULSIONS COMPRISING SEMIFLUORINATED ALKANES” (NOVALIQ GMBH, priority 2011, published 2025)", "key": {"[1]": {"system": "Candida albicans (ATCC 10231)", "test": "antimicrobial preservative effectiveness test in analogy to USP 32 <51>", "format": "cell-based", "details": "C. albicans; for cfu/mL 0 h: 0 h after inoculation; for cfu/mL 0 h / cfu/mL 24 h / cfu/mL 48 h: approx. 22.5° C.", "experimental": "(§1) An antimicrobial preservative effectiveness test in analogy to that of USP 32 <51>was carried out. Sample vials prepared according to Examples 1, 3 and 4 were inoculated with Escherichia coli, Pseudomonas aeruginosa, Staphylococcus aureus, Candida albicans and Aspergillus niger and incubated at approx. 22.5° C. Commercially obtained samples of Disoprivan® were tested as comparators.\n(§2) To determine whether the observed inhibition of microbial growth in the emulsions of the invention is an effect of the semifluorinated alkanes or the propofol, the test was repeated with a placebo emulsion containing no propofol, but only F6H8 in a higher concentration (40 wt.-%) and S75 in dextrose solution. Also tested were pure solutions of F6H8 and F4H5."}, "[2]": {"system": "Pseudomonas aeruginosa (ATCC 9027)", "test": "antimicrobial preservative effectiveness test in analogy to USP 32 <51>", "format": "cell-based", "details": "P. aeruginosa; for cfu/mL 0 h: 0 h after inoculation; for cfu/mL 0 h / cfu/mL 24 h / cfu/mL 48 h: approx. 22.5° C.", "experimental": "as §1, §2"}, "[3]": {"system": "Staphylococcus aureus (ATCC 6538)", "test": "antimicrobial preservative effectiveness test in analogy to USP 32 <51>", "format": "cell-based", "details": "S. aureus; for cfu/mL 0 h: 0 h after inoculation; for cfu/mL 0 h / cfu/mL 24 h / cfu/mL 48 h: approx. 22.5° C.", "experimental": "as §1, §2"}, "[4]": {"test": "miscibility of propofol with semifluorinated alkanes", "format": "physicochemical", "details": "over a wide temperature range", "excerpt": "By virtue of the high solubility of propofol in semifluorinated alkanes, it is now possible to provide injectable propofol formulations having a high strength (or concentration of propofol), and thus require only a low volume of administration. This will also bring about an improved tolerability, since a lower administration volume inherently means a lower intake of excipients (such as emulsifiers)."}, "[5]": {"system": "Aspergillus niger (ATCC 16404)", "test": "antimicrobial preservative effectiveness test in analogy to USP 32 <51>", "format": "cell-based", "details": "A. niger; for cfu/mL 0 h: 0 h after inoculation; for cfu/mL 0 h / cfu/mL 24 h / cfu/mL 48 h: approx. 22.5° C.", "experimental": "(§3) An antimicrobial preservative effectiveness test in analogy to that of USP 32 <51>was carried out. Sample vials prepared according to Examples 1, 3 and 4 were inoculated with Escherichia coli, Pseudomonas aeruginosa, Staphylococcus aureus, Candida albicans and Aspergillus niger and incubated at approx. 22.5° C. Commercially obtained samples of Disoprivan® were tested as comparators. […]"}, "[6]": {"system": "Escherichia coli (ATCC 8739)", "test": "antimicrobial preservative effectiveness test in analogy to USP 32 <51>", "format": "cell-based", "details": "E. coli; for cfu/mL 0 h: 0 h after inoculation; for cfu/mL 0 h / cfu/mL 24 h / cfu/mL 48 h: approx. 22.5° C.", "experimental": "as §3"}, "[7]": {"details": "hydroxyl group; cited from earlier work"}}, "data": [{"compound": "CCCCCCCCC(F)(F)C(F)(F)C(F)(F)C(F)(F)C(F)(F)C(F)(F)F", "note": "[Example F6H8]", "values": [{"measurement": "cfu/mL 0 h", "setting": "[1]", "result": "1 500 cfu/mL"}, {"measurement": "Change in log steps 24 h", "setting": "[1]", "result": "≤-1.2", "unit": "log steps"}, {"measurement": "cfu/mL 24 h", "setting": "[1]", "result": "<100", "unit": "cfu/mL"}, {"measurement": "Change in log steps 48 h", "setting": "[1]", "result": "≤-1.1", "unit": "log steps"}, {"measurement": "cfu/mL 48 h", "setting": "[1]", "result": "<100", "unit": "cfu/mL"}, {"measurement": "cfu/mL 0 h", "setting": "[2]", "result": "1 600 cfu/mL"}, {"measurement": "Change in log steps 24 h", "setting": "[2]", "result": "≤-1.2", "unit": "log steps"}, {"measurement": "cfu/mL 24 h", "setting": "[2]", "result": "<100", "unit": "cfu/mL"}, {"measurement": "Change in log steps 48 h", "setting": "[2]", "result": "≤-1.2", "unit": "log steps"}, {"measurement": "cfu/mL 48 h", "setting": "[2]", "result": "<100", "unit": "cfu/mL"}, {"measurement": "cfu/mL 0 h", "setting": "[3]", "result": "2 900 cfu/mL"}, {"measurement": "Change in log steps 24 h", "setting": "[3]", "result": "≤-1.4", "unit": "log steps"}, {"measurement": "cfu/mL 24 h", "setting": "[3]", "result": "<100", "unit": "cfu/mL"}, {"measurement": "Change in log steps 48 h", "setting": "[3]", "result": "≤-1.4", "unit": "log steps"}, {"measurement": "cfu/mL 48 h", "setting": "[3]", "result": "<100", "unit": "cfu/mL"}, {"measurement": "miscibility of propofol with the semifluorinated alkane", "setting": "[4]", "result": "fully miscible"}, {"measurement": "cfu/mL 0 h", "setting": "[5]", "result": "1 500 cfu/mL"}, {"measurement": "Change in log steps 24 h", "setting": "[5]", "result": "≤-1.2", "unit": "log steps"}, {"measurement": "cfu/mL 24 h", "setting": "[5]", "result": "<100", "unit": "cfu/mL"}, {"measurement": "Change in log steps 48 h", "setting": "[5]", "result": "≤-1.2", "unit": "log steps"}, {"measurement": "cfu/mL 48 h", "setting": "[5]", "result": "<100", "unit": "cfu/mL"}, {"measurement": "Change in log steps 6 d", "setting": "[5]", "result": "≤-1.2", "unit": "log steps"}, {"measurement": "cfu/mL 6 d", "setting": "[5]", "result": "<100", "unit": "cfu/mL"}, {"measurement": "cfu/mL 0 h", "setting": "[6]", "result": "1 600 cfu/mL"}, {"measurement": "Change in log steps 24 h", "setting": "[6]", "result": "≤-1.2", "unit": "log steps"}, {"measurement": "cfu/mL 24 h", "setting": "[6]", "result": "<100", "unit": "cfu/mL"}, {"measurement": "Change in log steps 48 h", "setting": "[6]", "result": "≤-1.2", "unit": "log steps"}, {"measurement": "cfu/mL 48 h", "setting": "[6]", "result": "<100", "unit": "cfu/mL"}]}, {"compound": "CC(C)c1cccc(C(C)C)c1O", "note": "[propofol, 2,6-diisopropylphenol]", "values": [{"measurement": "pKa", "setting": "[7]", "result": 11}]}, {"compound": "CCCCCC(F)(F)C(F)(F)C(F)(F)C(F)(F)F", "note": "[Example F4H5]", "values": [{"measurement": "cfu/mL 0 h", "setting": "[1]", "result": "1 500 cfu/mL"}, {"measurement": "Change in log steps 24 h", "setting": "[1]", "result": "≤-1.2", "unit": "log steps"}, {"measurement": "cfu/mL 24 h", "setting": "[1]", "result": "<100", "unit": "cfu/mL"}, {"measurement": "Change in log steps 48 h", "setting": "[1]", "result": "≤-1.1", "unit": "log steps"}, {"measurement": "cfu/mL 48 h", "setting": "[1]", "result": "<100", "unit": "cfu/mL"}, {"measurement": "cfu/mL 0 h", "setting": "[2]", "result": "1 600 cfu/mL"}, {"measurement": "Change in log steps 24 h", "setting": "[2]", "result": "≤-1.2", "unit": "log steps"}, {"measurement": "cfu/mL 24 h", "setting": "[2]", "result": "<100", "unit": "cfu/mL"}, {"measurement": "Change in log steps 48 h", "setting": "[2]", "result": "≤-1.2", "unit": "log steps"}, {"measurement": "cfu/mL 48 h", "setting": "[2]", "result": "<100", "unit": "cfu/mL"}, {"measurement": "cfu/mL 0 h", "setting": "[3]", "result": "2 900 cfu/mL"}, {"measurement": "Change in log steps 24 h", "setting": "[3]", "result": "≤-1.4", "unit": "log steps"}, {"measurement": "cfu/mL 24 h", "setting": "[3]", "result": "<100", "unit": "cfu/mL"}, {"measurement": "Change in log steps 48 h", "setting": "[3]", "result": "≤-1.4", "unit": "log steps"}, {"measurement": "cfu/mL 48 h", "setting": "[3]", "result": "<100", "unit": "cfu/mL"}, {"measurement": "miscibility of propofol with the semifluorinated alkane", "setting": "[4]", "result": "fully miscible"}, {"measurement": "cfu/mL 0 h", "setting": "[5]", "result": "3 000 cfu/mL"}, {"measurement": "Change in log steps 24 h", "setting": "[5]", "result": "≤-1.4", "unit": "log steps"}, {"measurement": "cfu/mL 24 h", "setting": "[5]", "result": "<100", "unit": "cfu/mL"}, {"measurement": "Change in log steps 48 h", "setting": "[5]", "result": "≤-1.2", "unit": "log steps"}, {"measurement": "cfu/mL 48 h", "setting": "[5]", "result": "<100", "unit": "cfu/mL"}, {"measurement": "Change in log steps 6 d", "setting": "[5]", "result": "≤-1.2", "unit": "log steps"}, {"measurement": "cfu/mL 6 d", "setting": "[5]", "result": "<100", "unit": "cfu/mL"}, {"measurement": "cfu/mL 0 h", "setting": "[6]", "result": "1 600 cfu/mL"}, {"measurement": "Change in log steps 24 h", "setting": "[6]", "result": "≤-1.2", "unit": "log steps"}, {"measurement": "cfu/mL 24 h", "setting": "[6]", "result": "<100", "unit": "cfu/mL"}, {"measurement": "Change in log steps 48 h", "setting": "[6]", "result": "≤-1.2", "unit": "log steps"}, {"measurement": "cfu/mL 48 h", "setting": "[6]", "result": "<100", "unit": "cfu/mL"}]}, {"compound": "CCCCCCC(F)(F)C(F)(F)C(F)(F)C(F)(F)F", "note": "[Example F4H6]", "values": [{"measurement": "miscibility of propofol with the semifluorinated alkane", "setting": "[4]", "result": "fully miscible"}]}]}
